From patent publication US10940139B2, “Compounds that interact with the Ras superfamily for the treatment of cancers, inflammatory diseases, rasopathies, and fibrotic disease” (Shy Therapeutics LLC, priority 2017, dated 2021) come the findings set out here.

This test deals with MIA-PACA2 pancreatic cancer cell lines. Put plainly: Cell proliferation assay, alternate assay conditions (DAPI fluorescence). The test is classed as cell-based. To be noted: Homo sapiens, MIA PaCa-2; for inhibition at 10 µM: * = tested at 10 μM, alternate conditions, MIA-PACA2; for IC50: MIA-PACA2, same assay as the % inhibition (alternate conditions). The procedure: Cell lines: Tumor-derived pancreatic cancer cell lines MIA-PACA2 were purchased from ATCC and grown in complete DMEM-High Glucose medium supplemented with penicillin (100 U/mL), streptomycin (100 μg/mL), and 10% heat-inactivated FBS at 37° C. in a humidified incubator with 5% CO2.
Method: Cells are plated at 4000 cells/well density in 96-wells plate. The next day tested small molecules are added to the cells in the final concentration of 10 μM in the presence of 0.3% DMSO and 10% FBS. After small molecules addition, cells are incubated for 4 days at 37° C. in a humidified incubator with 5% CO2. For IC50 value determination, serial dilutions of compounds were added to cells under the same conditions.
Assay: At the end of the incubation period, cell cultures are fixed with a 50-50 mixture (v/v) acetone-methanol for 10 minutes at −20° C., followed by rehydration in PBS for 10 minutes at room temperature. After rehydration, cells are stained with DAPI (1 μg/ml) in PBS for 10 minutes at room temperature, followed by 3 washes with PBS. After staining, DAPI fluorescence is recorded (358 nm excitation/461 nm emission) with the 96-well plate reader Molecular Devices Spectramax M3; degree of small mole-cule-dependent proliferation inhibition is calculated from raw data assuming No Serum cells value as 100%.

In general, inhibition refers to the change of the read-out against control, counted positive when it falls. A higher inhibition goes with strong suppression. As usually defined, the IC50 is the concentration at which inhibition is half-maximal. Lower therefore signals greater potency. As for `COCCNc1nc(-c2nccn2C)nc2sc(-c3ccccc3)c(-c3ccccc3)c12` [drawing 1837], the inhibition at 10 µM fell in the range of 76 to 100% and the half-maximal inhibitory concentration (IC50) lay within 501 to 1000 nM.

`COc1ccc(COC[C@H]2O[C@@H](c3csc4c(=O)[nH]c(-c5ccccn5)nc34)[C@H](O)[C@@H]2O)cc1` [drawing 1835] had an inhibition at 10 µM of 1 to 25%.

Take `Cn1ccnc1-c1nc(O)c2sc(-c3ccccc3)c(-c3ccccc3)c2n1` [drawing 1890]: the inhibition at 10 µM fell in the range of 51 to 75%.

`Cc1sc2c(O)nc(-c3nccn3C)nc2c1-c1cccc(C(F)(F)F)c1` [drawing 1901]: the inhibition at 10 µM fell in the range of 76 to 100% and the half-inhibitory concentration (IC50) was in the range of 100 to 500 nM.

For `CC(CO)Nc1nc(-c2nccn2C)nc2sc(-c3ccccc3)c(-c3ccccc3)c12` (stereo not shown) [drawing 1880], the inhibition at 10 µM was 76 to 100%.

As for `COCCNc1nc(-c2nccn2C)nc2sc(C)c(-c3ccccc3)c12` [drawing 1886], the inhibition at 10 µM was 76 to 100% and the IC50 lay in the range of 501 to 1000 nM.

On to `COc1ccc(-c2csc3c(O)nc(-c4nccn4C)nc23)cn1` [drawing 1915], for which the inhibition at 10 µM was in the range of 76 to 100%.

Compound `Cn1ccnc1-c1nc(O)c2sc(-c3ccccc3)c(-c3ccccc3Cl)c2n1` [drawing 1897] displayed an inhibition at 10 µM of 76 to 100% and an IC50 of 100 to 500 nM.

`Cn1cnc(-c2nc(O)c3sc(-c4ccncc4)c(-c4ccccc4)c3n2)c1` [drawing 1851] returned an inhibition at 10 µM of 76 to 100%.

`Oc1nc(-c2ccncn2)nc2c(-c3cccc(C(F)(F)F)c3)csc12` [drawing 1909]: the inhibition at 10 µM fell in the range of 76 to 100% and the 50% inhibitory concentration (IC50) was more than 1000 nM.

Turning to `COCCNc1nc(-c2nccn2C)nc2sc(-c3ccccc3)c(-c3ccccc3Cl)c12` [drawing 1882], the inhibition at 10 µM is 76 to 100% and the IC50 is more than 1000 nM.

In the case of `COc1ccc(-c2c(-c3ccccc3)sc3c(O)nc(-c4nccn4C)nc23)cn1` [drawing 1895], the inhibition at 10 µM fell in the range of 76 to 100% and the IC50 is 501 to 1000 nM.

As to `COCCNc1nc(-c2nccn2C)nc2sc(-c3ccccc3)c(-c3ccccn3)c12` [drawing 1924], the inhibition at 10 µM was in the range of 76 to 100% and the IC50 was in the range of 501 to 1000 nM.

With `Oc1nc(-c2ccccn2)nc(Oc2cccc(C(F)(F)F)c2)c1O` [drawing 1860], the inhibition at 10 µM lay in the range of 76 to 100%.

Compound `COc1cnc(CNC(=O)c2csc3nc(-c4ccccn4)nc(N)c23)[nH]c1=O` [drawing 1819] registered an inhibition at 10 µM of 0%.

As for `Oc1nc(-c2ccccn2)nc2cc(-c3ccccc3)sc12` [drawing 1864], the inhibition at 10 µM was 76 to 100%.

Regarding `Oc1nc(-c2ccccn2)nc2c(-c3ccccc3)c(-c3ccncc3)sc12` [drawing 1850], the inhibition at 10 µM was 76 to 100%.

The compound `COCC(C)Nc1nc(-c2nccn2C)nc2sc(-c3ccccc3)c(-c3ccccc3)c12` (stereo not shown) [drawing 1879] displayed an inhibition at 10 µM of 76 to 100% and a 50% inhibitory concentration (IC50) of 501 to 1000 nM.

`Cn1ccnc1-c1nc(O)c2sc(-c3ccccc3)c(-c3cccc(C(F)(F)F)c3)c2n1` [drawing 1894]: the inhibition at 10 µM is 25 to 50%.

On to `COc1cnc(-c2nccn2C)nc1O` [drawing 1815], for which the inhibition at 10 µM was 51 to 75%.

Compound `Oc1nc(-c2ncccn2)nc2c(-c3cccc(C(F)(F)F)c3)csc12` [drawing 1910] returned an inhibition at 10 µM of 76 to 100%.

In the case of `O=C(c1csc2c(O)nc(-c3ccccn3)nc12)N1CCNC(c2ccc(Cl)cc2)C1` (stereo not shown) [drawing 1827], the inhibition at 10 µM is 76 to 100%.

Take `CN(C)CCOc1cccc(-c2csc3c(O)nc(-c4ccccn4)nc23)c1` [drawing 1798]: the inhibition at 10 µM lay in the range of 76 to 100%.

For the compound `CCOCCOc1nc(-c2nccn2C)nc2sc(-c3ccccc3)c(-c3ccccc3)c12` [drawing 1874], the inhibition at 10 µM is 76 to 100%.

The compound `Cc1sc2c(O)nc(-c3ccccn3)nc2c1C(=O)N1CCN(Cc2cccc(O)c2)CC1` [drawing 1809] had an inhibition at 10 µM of 25 to 50%.

Regarding `Nc1cccc(-c2csc3c(O)nc(-c4ccccn4)nc23)n1` [drawing 1816], the inhibition at 10 µM lay within 76 to 100%.

In the case of `COc1nc(-c2ccccn2)nc2c(-c3cccc(O)n3)csc12`, the inhibition at 10 µM was 76 to 100%.

`CC(C)Cc1csc2c(O)nc(-c3ccccn3)nc12` [drawing 1813] gave an inhibition at 10 µM of 76 to 100%.

For the compound `Cc1ccc(-c2cc3nc(-c4ccccn4)nc(O)c3s2)cc1` [drawing 1857], the inhibition at 10 µM fell in the range of 76 to 100%.

Consider `N#Cc1cccc(-c2csc3c(O)nc(-c4ccccn4)nc23)c1` [drawing 1800], for which the inhibition at 10 µM fell in the range of 76 to 100%.

For the compound `COc1c(O)nc(-c2ccccn2)nc1Oc1cccc(C(F)(F)F)c1` [drawing 1859], the inhibition at 10 µM fell in the range of 76 to 100%.

`COc1ccc(-c2cc3nc(-c4ccccn4)nc(O)c3s2)cc1` [drawing 1865]: the inhibition at 10 µM was 76 to 100%.

With `Cn1cnc(-c2nc(O)c3c(-c4ccccc4)c(-c4ccc(CNC(=O)OC(C)(C)C)cc4)sc3n2)c1` [drawing 1839], the inhibition at 10 µM was 25 to 50%.

As for `COC1CCN(c2nc(-c3nccn3C)nc3sc(-c4ccccc4)c(-c4ccccc4)c23)C1` (stereo not shown) [drawing 1873], the inhibition at 10 µM lay within 76 to 100% and the IC50 was in the range of 501 to 1000 nM.

Regarding `CC(C)c1nn(C)cc1-c1csc2c(O)nc(-c3ccccn3)nc12` [drawing 1797], the inhibition at 10 µM is 76 to 100%.

As for `Cn1cnc(-c2nc(O)c3scc(-c4cccc(C(F)(F)F)c4)c3n2)c1` [drawing 1906], the inhibition at 10 µM lay in the range of 76 to 100%.

The compound `Cn1ccnc1-c1nc(O)c2scc(-c3cccc(OC(F)(F)F)c3)c2n1` [drawing 1905] showed an inhibition at 10 µM of 76 to 100% and an IC50 of 100 to 500 nM.

`CC(C)OCCNc1nc(-c2nccn2C)nc2sc(-c3ccccc3)c(-c3ccccc3)c12` [drawing 1869] came in with an inhibition at 10 µM of 76 to 100%.

`COc1nc(-c2ccccn2)nc2c1c(-c1ccccc1)nn2-c1ccccn1` [drawing 1842] yielded an inhibition at 10 µM of 76 to 100%.

With `Oc1nc(-c2ccccn2)nc2c(C3CC3)csc12` [drawing 1820], the inhibition at 10 µM lay in the range of 76 to 100%.

`COCCNc1nc(-c2cn(C)cn2)nc2sc(C)c(-c3ccccc3)c12` [drawing 1887] registered an inhibition at 10 µM of 76 to 100%.

`Nc1nc(O)c2sc(-c3cccc(C(=O)NCc4ncc[nH]4)c3)cc2n1` [drawing 1847] returned an inhibition at 10 µM of 1 to 25%.

Turning to `COCCNc1nc(-c2ccccn2)nc2c1c(-c1ccccc1)nn2-c1ccccn1` [drawing 1840], the inhibition at 10 µM is 76 to 100%.

Compound `COC(=O)c1c(C)sc2c(O)nc(-c3ccccn3)nc12` [drawing 1810] displayed an inhibition at 10 µM of 25 to 50%.

For the compound `O=c1[nH]c(-c2ccccn2)nc2c([C@@H]3O[C@H](CO)[C@@H](O)[C@H]3O)csc12` [drawing 1829], the inhibition at 10 µM is 76 to 100%.

`COCCNc1nc(-c2ccccn2)nc(-c2cccc(OCCN(C)C)c2)c1Oc1ccccc1` [drawing 1831] displayed an inhibition at 10 µM of 76 to 100%.

On to `OCC1(c2ccc(-c3nc(-c4ccccn4)nc(O)c3Oc3ccccc3)cc2)CC1` [drawing 1836], for which the inhibition at 10 µM was 76 to 100%.

Consider `Oc1nc(-c2ccccn2)nc2cc(-c3ccccc3Cl)sc12` [drawing 1858], for which the inhibition at 10 µM was 76 to 100%.

The compound `Cn1ccnc1-c1nc(NCCOC(F)(F)F)c2c(-c3ccccc3)c(-c3ccccc3)sc2n1` [drawing 1870] registered an inhibition at 10 µM of 76 to 100%.

Compound `CCOCCNc1nc(-c2nccn2C)nc2sc(-c3ccccc3)c(-c3ccccc3)c12` [drawing 1877] yielded an inhibition at 10 µM of 76 to 100% and an IC50 of 501 to 1000 nM.

In the case of `Cc1sc2c(O)nc(-c3ccccn3)nc2c1C(=O)N1CCN(c2ccccc2)CC1C` (stereo not shown) [drawing 1808], the inhibition at 10 µM lay in the range of 76 to 100%.

`COCCNc1nc(-c2nccn2C)nc2sc(-c3ccccc3)c(-c3ccncc3)c12` [drawing 1898] displayed an inhibition at 10 µM of 76 to 100%.

`Oc1nc(-c2ccccn2)nc2cc(-c3ccc(-c4ccccc4)cc3)sc12` [drawing 1861] yielded an inhibition at 10 µM of 76 to 100%.

`CC(O)CNc1nc(-c2nccn2C)nc2sc(-c3ccccc3)c(-c3ccccc3)c12` (stereo not shown) [drawing 1871]: the inhibition at 10 µM lay within 76 to 100%.

`COc1cnc(CNC(=O)c2sc3c(O)nc(-c4ccccn4)nc3c2C)[nH]c1=O` [drawing 1826] came in with an inhibition at 10 µM of 0%.

As for `COc1nc(-c2cn(C)cn2)nc2sc(-c3ccncc3)c(-c3ccccc3)c12` [drawing 1833], the inhibition at 10 µM fell in the range of 76 to 100%.

With `Cn1cnc(-c2nc(O)c3scc(-c4cccc(OC(F)(F)F)c4)c3n2)c1` [drawing 1908], the inhibition at 10 µM was in the range of 76 to 100%.

As to `COCCNc1nc(-c2nccn2C)nc2sc(-c3ccccc3)c(-c3ccc(OC)cc3)c12` [drawing 1891], the inhibition at 10 µM lay within 76 to 100% and the IC50 fell in the range of 501 to 1000 nM.

Regarding `Nc1nc(O)c2sc(-c3cccc(C(=O)NC4CCNC4=O)c3)cc2n1` (stereo not shown) [drawing 1844], the inhibition at 10 µM is 0%.

In the case of `Oc1nc(-c2ccccn2)nc2c(CC3CNC3)csc12` [drawing 1821], the inhibition at 10 µM was 25 to 50%.

With `Oc1nc(-c2ccccn2)nc2cc(-c3cccc(Br)c3)sc12` [drawing 1866], the inhibition at 10 µM is 76 to 100%.

Compound `Cc1sc2c(O)nc(-c3nccn3C)nc2c1-c1ccc(OCC(C)C)nc1` [drawing 1902] gave an inhibition at 10 µM of 76 to 100%.

On to `Cc1c(-c2csc3c(O)nc(-c4ccccn4)nc23)cnn1C` [drawing 1802], for which the inhibition at 10 µM fell in the range of 76 to 100%.
